Measured values as given in ChEMBL document CHEMBL4609995, “Rational design, synthesis and biological profiling of new KDM4C inhibitors” (Bioorg Med Chem, 2020).

What was measured:
[1] = target: T1, Lysine-specific demethylase 4C (Homo sapiens) (UniProt Q9H3R0); experiment: Inhibition of KDM4C (unknown origin) at 10 uM using methylated H3 peptide as substrate by chemiluminescence assay relative to control
T1 sequence (whole entry): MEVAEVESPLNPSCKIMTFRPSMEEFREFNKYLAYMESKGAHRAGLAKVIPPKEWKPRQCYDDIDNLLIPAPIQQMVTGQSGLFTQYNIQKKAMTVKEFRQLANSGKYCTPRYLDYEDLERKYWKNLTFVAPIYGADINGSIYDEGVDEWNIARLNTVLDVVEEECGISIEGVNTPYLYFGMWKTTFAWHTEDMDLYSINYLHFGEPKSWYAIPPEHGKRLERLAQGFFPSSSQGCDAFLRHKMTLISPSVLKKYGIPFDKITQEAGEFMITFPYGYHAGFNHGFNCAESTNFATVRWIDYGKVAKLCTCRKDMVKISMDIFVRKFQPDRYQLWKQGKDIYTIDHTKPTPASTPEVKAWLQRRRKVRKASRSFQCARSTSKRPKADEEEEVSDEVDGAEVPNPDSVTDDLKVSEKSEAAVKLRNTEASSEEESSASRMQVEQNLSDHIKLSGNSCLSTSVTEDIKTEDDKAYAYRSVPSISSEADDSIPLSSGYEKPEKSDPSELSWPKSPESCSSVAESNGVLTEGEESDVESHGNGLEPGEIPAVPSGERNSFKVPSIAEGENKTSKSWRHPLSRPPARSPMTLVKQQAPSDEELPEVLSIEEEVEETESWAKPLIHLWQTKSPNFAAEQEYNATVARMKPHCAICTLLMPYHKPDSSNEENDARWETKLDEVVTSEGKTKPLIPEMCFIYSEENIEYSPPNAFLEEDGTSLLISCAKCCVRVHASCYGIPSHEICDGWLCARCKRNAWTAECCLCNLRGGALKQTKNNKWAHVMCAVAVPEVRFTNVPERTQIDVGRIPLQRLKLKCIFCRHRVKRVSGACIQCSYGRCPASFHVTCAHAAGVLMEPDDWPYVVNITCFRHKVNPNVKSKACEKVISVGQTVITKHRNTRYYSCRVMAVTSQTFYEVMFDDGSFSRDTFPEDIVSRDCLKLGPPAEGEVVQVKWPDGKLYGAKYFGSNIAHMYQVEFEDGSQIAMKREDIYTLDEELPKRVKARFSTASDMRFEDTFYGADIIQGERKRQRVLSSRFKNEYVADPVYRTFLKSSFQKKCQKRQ

[2] = target: T2, Lysine-specific demethylase 4C (Homo sapiens, UniProt Q9H3R0); experiment: Inhibition of KDM4C (unknown origin) using methylated H3 peptide as substrate by chemiluminescence assay
T2 sequence (Q9H3R0 whole entry): T1 sequence (whole entry)

[3] = Substrate activity at P-gp in MDCK2-MDR1 cells at 10 uM incubated for 60 mins in presence or absence of 2 uM P-gp inhibitor elacridar by LC-MS/MS analysis; assay type: ADME, cell-based, Canis lupus familiaris; conditions: dog, mdck-mdr1, 1 h
HepG2 = experiment: Antiproliferative activity against human HepG2 cells assessed as reduction in cell growth measured after 24 hrs by MTS assay; assay type: functional, cell-based; conditions: HepG2, 24 h
A549 = experiment: Antiproliferative activity against human A549 cells assessed as reduction in cell growth measured after 72 hrs by Alamar blue assay; assay type: functional, cell-based; conditions: A549, 72 h
P-gp [4] = experiment: Permeability across apical to basolateral side in MDCK2-MDR1 cells at 10 uM incubated for 60 mins in presence 2 uM P-gp inhibitor elacridar by LC-MS/MS analysis; assay type: ADME, cell-based, Canis lupus familiaris; conditions: dog, MDCK-MDR1, with elacridar 2 uM; read-out: permeability
[5] = Intrinsic clearance in mouse liver microsomes assessed per mg protein at 1 uM measured up to 60 mins in presence or absence of NADPH by LC-MS/MS analysis; assay type: ADME, Microsome; conditions: for microsomal CLint at 1 µM: liver microsomes, read-out: CLH
P-gp [6] = experiment: Efflux ratio of permeability from basolateral to apical over apical to basolateral side in MDCK2-MDR1 cells MDCK2-MDR1 cells at 10 uM incubated for 60 mins in presence 2 uM P-gp inhibitor elacridar by LC-MS/MS analysis; assay type: ADME, cell-based, Canis lupus familiaris; conditions: dog, MDCK-MDR1, with elacridar 2 uM
[7] = Electrochemical behavior of the compound assessed as reduction in redox potential; assay type: physicochemical
[8] = target: T3, Lysine-specific demethylase 4A (Homo sapiens, UniProt O75164); experiment: Inhibition of KDM4A (unknown origin)
T3 sequence (O75164 whole entry): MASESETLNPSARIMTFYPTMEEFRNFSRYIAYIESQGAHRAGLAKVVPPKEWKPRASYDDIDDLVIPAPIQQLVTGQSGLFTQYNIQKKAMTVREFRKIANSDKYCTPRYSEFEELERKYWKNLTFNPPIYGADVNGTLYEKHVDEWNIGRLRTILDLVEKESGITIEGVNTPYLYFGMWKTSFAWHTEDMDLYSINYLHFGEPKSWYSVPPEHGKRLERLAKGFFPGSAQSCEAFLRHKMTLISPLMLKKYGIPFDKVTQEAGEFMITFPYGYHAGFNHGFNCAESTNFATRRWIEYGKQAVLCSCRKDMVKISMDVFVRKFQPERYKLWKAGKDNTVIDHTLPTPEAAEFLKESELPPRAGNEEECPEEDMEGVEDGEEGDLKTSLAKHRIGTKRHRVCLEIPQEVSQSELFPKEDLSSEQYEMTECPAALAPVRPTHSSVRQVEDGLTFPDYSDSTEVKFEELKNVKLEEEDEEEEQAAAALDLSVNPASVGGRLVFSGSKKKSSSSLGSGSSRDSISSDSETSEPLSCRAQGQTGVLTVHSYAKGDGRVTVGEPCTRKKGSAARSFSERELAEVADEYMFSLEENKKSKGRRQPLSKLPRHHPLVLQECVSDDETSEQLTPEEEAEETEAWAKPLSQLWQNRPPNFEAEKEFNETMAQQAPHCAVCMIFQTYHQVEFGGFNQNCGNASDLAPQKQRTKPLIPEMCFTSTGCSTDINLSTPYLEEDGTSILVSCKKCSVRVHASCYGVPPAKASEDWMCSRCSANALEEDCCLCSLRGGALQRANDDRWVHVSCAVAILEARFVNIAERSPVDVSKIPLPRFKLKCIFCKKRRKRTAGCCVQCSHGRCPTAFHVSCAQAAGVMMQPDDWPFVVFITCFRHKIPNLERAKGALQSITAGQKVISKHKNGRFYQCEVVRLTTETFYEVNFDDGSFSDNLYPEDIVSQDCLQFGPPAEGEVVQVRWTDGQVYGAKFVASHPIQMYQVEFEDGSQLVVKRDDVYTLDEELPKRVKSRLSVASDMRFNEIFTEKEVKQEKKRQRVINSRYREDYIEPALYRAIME

[9] = target: T2, Lysine-specific demethylase 4C; experiment: Inhibition of KDM4C (unknown origin)
Homo sapiens = species on record: Homo sapiens; experiment: Selectivity ratio, ratio of IC50 for KDM4A (unknown origin) to IC50 for KDM4C (unknown origin)

Row | Compound | inhibition [1] | IC50 ([2]; read-out: IC50) | Activity [3] | IC50 (HepG2) | IC50 (A549) | Papp A→B at 1 h, 10 µM (P-gp [4]) | microsomal CLint at 1 µM [5] | efflux ratio at 1 h, 10 µM (P-gp [6]) | IC50 [2] | CLint ([5]; microsomes, 1 h, 1 µM) | Activity [7] | IC50 [8] | IC50 [9] | Ratio IC50 (Homo sapiens)
1 | CN(C)c1ccccc1/C=N/N(C)c1cc(=O)n(C)c(=O)[nH]1 | 40 to 70% |  |  |  |  |  |  |  |  |  |  |  |  | 
2 | CN(/N=C/c1ccc(F)cc1)c1cc(=O)n(C)c(=O)[nH]1 | > 70% |  |  |  |  |  |  |  |  |  |  |  |  | 
3 | Cn1nc(-c2ccc(S(N)(=O)=O)cc2)nc2c(=O)n(C)c(=O)nc1-2 |  | 42 nM | Not Active | 5600 nM | > 30 µM | 0.8 ×10⁻⁶ cm/s | < 12.5 µL/min/mg | < 2 |  |  |  |  |  | 
4 | COC(=O)C1(c2ccc(-c3nc4c(=O)n(C)c(=O)nc-4n(C)n3)cc2)CC1 |  |  | Not Active | 1200 nM | 1.3 µM | 24.9 ×10⁻⁶ cm/s | < 12.5 µL/min/mg | < 2 | Not Active |  |  |  |  | 
5 | Cn1nc(-c2ccn(C)c(=O)c2)nc2c(=O)n(C)c(=O)nc1-2 |  |  | Active | 4500 nM | 8.8 µM | 1.1 ×10⁻⁶ cm/s |  | < 2 | Not Active | 71.8 µL/min/mg |  |  |  | 
6 | Cn1nc(-c2ccc(F)cc2)nc2c(=O)n(C)c(=O)nc1-2 |  | 81 nM | Not Active | 820 nM | 1.6 µM | 30.6 ×10⁻⁶ cm/s | < 12.5 µL/min/mg | < 2 |  |  |  |  |  | 
7 | Cn1nc(-c2ccncc2)nc2c(=O)n(C)c(=O)nc1-2 |  | 19 nM | Not Active | 1800 nM | 4.3 µM | 13.4 ×10⁻⁶ cm/s | 11.6 µL/min/mg | < 2 |  |  |  |  |  | 
8 | Cn1c(=O)[nH]c2ccc(-c3ccccc3)cc2c1=O |  | > 10000 nM | Not Active | > 25000 nM | > 30 µM | 27.3 ×10⁻⁶ cm/s | 229 µL/min/mg | < 2 |  |  |  |  |  | 
9 | Cn1nc(-c2ccccc2)nc2c(=O)n(C)c(=O)nc1-2 |  | 130 nM | Not Active | 870 nM | 1.1 µM | 34.7 ×10⁻⁶ cm/s | < 12.5 µL/min/mg | < 2 |  |  |  |  |  | 
10 | CN(/N=C/c1ccc(O)cc1)c1cc(=O)n(C)c(=O)[nH]1 | 40 to 70% |  |  |  |  |  |  |  |  |  |  |  |  | 
11 | Cn1c(=O)nc2[nH]nc(-c3ccccc3)nc-2c1=O |  | 7630 nM | Not Active | > 25000 nM | > 30 µM | 35.5 ×10⁻⁶ cm/s | < 12.5 µL/min/mg | < 2 |  |  |  |  |  | 
12 | CN(/N=C/c1ccccc1)c1cc(=O)n(C)c(=O)[nH]1 | > 70% |  |  |  |  |  |  |  |  |  | Active |  |  | 
13 | COc1ccc(-c2nc3c(=O)n(C)c(=O)nc-3n(C)n2)cc1 |  | 8 nM | Not Active | 800 nM | 1.1 µM | 34.5 ×10⁻⁶ cm/s | < 12.5 µL/min/mg | < 2 |  |  |  |  |  | 
14 | Cn1nc(-c2ccc(O)cc2)nc2c(=O)n(C)c(=O)nc1-2 |  | 242 nM | Not Active | 1100 nM | 5.8 µM | 13.2 ×10⁻⁶ cm/s | < 12.5 µL/min/mg | < 2 |  |  |  |  |  | 
15 | Cn1nc(Cc2ccccc2)nc2c(=O)n(C)c(=O)nc1-2 |  | 29 nM | Not Active | 5100 nM | > 30 µM | 25.3 ×10⁻⁶ cm/s | < 12.5 µL/min/mg | < 2 |  |  |  |  |  | 
16 | Cn1nc(-c2ccccc2)nc2n(C)c(=O)nc1-2 |  | 12700 nM | Not Active | > 25000 nM | > 30 µM | 40.6 ×10⁻⁶ cm/s | 13.1 µL/min/mg | < 2 |  |  |  |  |  | 
17 | CN(C)c1ccccc1-c1nc2c(=O)n(C)c(=O)nc-2n(C)n1 |  | 16 nM | Not Active | 2100 nM | 5.7 µM | 18 ×10⁻⁶ cm/s | < 12.5 µL/min/mg | < 2 |  |  |  |  |  | 
18 | Cn1nc(-c2ccc(C#N)cc2)nc2c(=O)n(C)c(=O)nc1-2 |  | 11 nM | Not Active | 800 nM | 1.9 µM | 26.8 ×10⁻⁶ cm/s | < 12.5 µL/min/mg | < 2 |  |  |  |  |  | 
19 | COc1ccc(/C=N/N(C)c2cc(=O)n(C)c(=O)[nH]2)cc1 | 40 to 70% |  |  |  |  |  |  |  |  |  |  |  |  | 
20 | Cn1ncnc2c(=O)n(C)c(=O)nc1-2 |  | 541 nM | Not Active | 4500 nM | 0.022 µM | 16 ×10⁻⁶ cm/s | < 12.5 µL/min/mg | < 2 |  |  |  | 2500 nM | 500 nM | 5
